The numbers were not newly measured in PMC4585962, “A peptide factor secreted by Staphylococcus pseudintermedius exhibits properties of both bacteriocins and virulence factors” (Scientific Reports, 2015), which cites them from elsewhere.

The test system of one data set is proteases. Conditions: cited from earlier work. The method, then:
(§1) BacSp222 remains active upon even prolonged incubation at elevated temperature and is exceptionally resistant to proteases in vitro. The former feature is quite common for bacteriocins, which, in combination with the virtual lack of cytotoxicity, contributes to common and successful application of bacteriocins in the food industry as preservatives, either in the form of additives or as coating agents for packaging materials. […] Resistan ...

In a further data set the test system is mammalian cells. Conditions: cited from earlier work. The source says: In addition to the evident bactericidal activity of BacSp222, the most intriguing findings are its cytotoxic and modulatory effects on mammalian cells. Generally, peptide bacteriocins are considered to be noncytotoxic. However, the first known bacterial toxin active against eukaryotic and prokaryotic cells was a cytolysin produced by Enterococcus faecalis.

In data set [1] the test system is Galleria mellonella larvae. Conditions: degradation or inactivation by host agents; cited from earlier work. The method, then: as §1

For aureocin A53, in the data set on proteases, the resistance to proteases entry is “Resistance to proteases”.

Consider bovicin HC5, for which the “concentrations with adverse effects on mammalian cells” value in the data set on mammalian cells is given as “tens to hundreds”.

In the case of epidermicin NI01, in data set [1], the “time to loss of bacteriocin activity after administration” value is on record as “lost within less than an hour”.

Regarding “nisin: low molecular weight bacteriocin produced by lactic acid bacteria (ITSISLCTPGCKTGALMGCNMKTATCHCSIHVSK; not fully specified; Lantibiotic nisin-A; UniProt P13068 24-57, looked up)”, the “concentrations with adverse effects on mammalian cells” value in the data set on mammalian cells was “tens to hundreds”.
